Measured values taken from the supplement of paper PMC11208160.

Assay: recombinant barcode read abundance after kanamycin selection (control-corrected) (log10(CPM+1)); higher = more efficient recombination; sequences stand for … in AGTGCAGAGAAAATCGGCCAGTTTTCTCTGCCTGCAGTCCGCATGCCGT…AGATTTATGCAGCGGACTGCCTTTCTCCCAAAGTGATAAACCGGACAGTATCATGGACCGGTTTTCCCGGTAATCCGTATTTGCAAGGTTGGTTTCACT; site = the 11-nt target
Experimental: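 Pooled E. coli target-specificity screen for the IS621 bridge recombinase. Each library plasmid pairs an 11-nt target (CT core) with a bridge RNA whose target-binding loop (9-nt LTG + 4-nt RTG) is reprogrammed; the rest of the 177-nt WT IS621 bridge RNA scaffold is fixed. The plasmid is co-electroporated with a WT donor plasmid; recombinase is induced with 0.1 mM IPTG and recombinants are selected on kanamycin. Recombinant barcodes are sequenced, converted to CPM, averaged over two biological replicates and corrected by the unselected control CPM. Molecule = full bridge RNA written as DNA: LTG = specificity nt 1-9, RTG = reverse complement of specificity nt 8-11, in the WT scaffold.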
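Also: IS621 recombinase and bridge RNA in Escherichia coli cells.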

Sequence	recombinant barcode read abundance (log10)
ACTCAGGCTTGGGTTCTAACCTGTTGCCG (site ACTCAGGCTCG)	0.541
ACTCCGTCTTGGGTTCTAACCTGTTGCTA (site ACTCCGTCTTA)	1.11
ACTCCGTCTTGGGTTCTAACCTGTTGCTA (site GCTCCGTCTAA)	0.0432
ACTCGACCTTGGGTTCTAACCTGTTGCCT (site ACTAGACCTAG)	0.197
ACTCGACCTTGGGTTCTAACCTGTTGCCT (site ACTCGACCTAG)	1.78
ACTGAGTCTTGGGTTCTAACCTGTTGCAT (site ACTGAGTCTAT)	2.69
ACTGAGTCTTGGGTTCTAACCTGTTGCAT (site ACTGAGTCTTT)	0.109
ACTGAGTCTTGGGTTCTAACCTGTTGCTT (site ACTGAGTCTAA)	1.22
ACTGAGTCTTGGGTTCTAACCTGTTGCTT (site ACTGGGTCTAA)	0.0903
ACTGGACCTTGGGTTCTAACCTGTTGCTT (site ACTGGACCTAA)	2.23
ACTGGACCTTGGGTTCTAACCTGTTGCTT (site GCTGGACCTAG)	0.616
ACTGGGGCTTGGGTTCTAACCTGTTGCCA (site ACTGGGGCTTG)	0.782
ACTGGGGCTTGGGTTCTAACCTGTTGCCA (site TCTGGGGCTAG)	0.0799
ACTGGTCCTTGGGTTCTAACCTGTTGCAG (site ACTACTCCTCT)	0.0961
ACTGGTCCTTGGGTTCTAACCTGTTGCAG (site ACTGGTCCTCT)	2.59
ACTTAGCCTTGGGTTCTAACCTGTTGCAT (site ACTTAGCCTAG)	1.48
ACTTAGCCTTGGGTTCTAACCTGTTGCAT (site ACTTAGCCTAT)	1.27
ACTTCGACTTGGGTTCTAACCTGTTGCCT (site AATTCGACTAG)	0.0426
ACTTCGACTTGGGTTCTAACCTGTTGCCT (site ACTTCGACTAG)	0.116
ACTTCGACTTGGGTTCTAACCTGTTGCCT (site AGTTCGACTAG)	0.461
ACTTCGACTTGGGTTCTAACCTGTTGCCT (site ATTTCGACTAG)	0.0176

Sequence	recombinant barcode read abundance (log10)
ACTTCTTCTTGGGTTCTAACCTGTTGCCT (site ACTTCTACTCG)	0.124
ACTTCTTCTTGGGTTCTAACCTGTTGCCT (site ACTTCTTCTAG)	0.0747
ACTTGCTCTTGGGTTCTAACCTGTTGCTT (site ACTAGCTCTAG)	0.448
ACTTGCTCTTGGGTTCTAACCTGTTGCTT (site ACTTGCTCTAA)	0.136
ACTTGGACTTGGGTTCTAACCTGTTGCAT (site ACTTGGACTAT)	1.79
ACTTGGACTTGGGTTCTAACCTGTTGCAT (site ACTTGTACTAT)	0.0581
ACTTGGCCTTGGGTTCTAACCTGTTGCTG (site ACGTGGCCTCA)	0.111
ACTTGGCCTTGGGTTCTAACCTGTTGCTG (site ACTTGGCCTCA)	0.0699
ACTTTCCCTTGGGTTCTAACCTGTTGCCT (site ACTTTCCCTAG)	0.424
ACTTTCCCTTGGGTTCTAACCTGTTGCCT (site GCTTTGCCTAG)	0.0175
AGAAGCACTTGGGTTCTAACCTGTTGCCA (site AGAAGCACTTG)	0.783
AGAAGCACTTGGGTTCTAACCTGTTGCCA (site CTGTCTCCTAC)	0.00729
AGAAGCCCTTGGGTTCTAACCTGTTGCCT (site AAAAGCCCTAG)	0.134
AGAAGCCCTTGGGTTCTAACCTGTTGCCT (site ACAAGCCCTAG)	0.269
AGAAGCCCTTGGGTTCTAACCTGTTGCCT (site AGAAGCCCTAG)	1.51
AGAAGCCCTTGGGTTCTAACCTGTTGCCT (site ATAAGCCCTAG)	0.0722
AGAAGTCCTTGGGTTCTAACCTGTTGCCG (site AGAAGTCCTCA)	0.236
AGAAGTCCTTGGGTTCTAACCTGTTGCCG (site AGAAGTCCTCC)	0.121
AGAAGTCCTTGGGTTCTAACCTGTTGCCG (site AGAAGTCCTCG)	0.971
AGAAGTCCTTGGGTTCTAACCTGTTGCCG (site AGAAGTCCTCT)	0.221
AGAATAGCTTGGGTTCTAACCTGTTGCAG (site AGAATAGCTCT)	2.13

Sequence	recombinant barcode read abundance (log10)
AGAATAGCTTGGGTTCTAACCTGTTGCAG (site AGGATAGCTCA)	0.0664
AGAATGTCTTGGGTTCTAACCTGTTGCCT (site AGAACGTCTAG)	0.0676
AGAATGTCTTGGGTTCTAACCTGTTGCCT (site AGAATGTCTAG)	1.98
AGACCTCCTTGGGTTCTAACCTGTTGCTT (site AGACATCCTAA)	0.0481
AGACCTCCTTGGGTTCTAACCTGTTGCTT (site AGACCTCCTAA)	1.39
AGACCTCCTTGGGTTCTAACCTGTTGCTT (site AGACGTCCTAA)	0.138
AGACCTCCTTGGGTTCTAACCTGTTGCTT (site AGACTTCCTAA)	0.0176
AGACCTTCTTGGGTTCTAACCTGTTGCCT (site ACACCGTCTAG)	0.0168
AGACCTTCTTGGGTTCTAACCTGTTGCCT (site AGACCTTCTAG)	1.55
AGACGTACTTGGGTTCTAACCTGTTGCGT (site AGACGTACTAC)	1.82
AGACGTACTTGGGTTCTAACCTGTTGCGT (site TAGTTATCTTA)	0.102
AGAGAGACTTGGGTTCTAACCTGTTGCAC (site AGAGAGACTGT)	2.18
AGAGAGACTTGGGTTCTAACCTGTTGCAC (site TGATAGACTGT)	0.169
AGAGAGACTTGGGTTCTAACCTGTTGCCT (site AGAGAGACTAG)	2.43
AGAGAGACTTGGGTTCTAACCTGTTGCCT (site AGAGCGACTAG)	0.0685
AGAGAGACTTGGGTTCTAACCTGTTGCCT (site AGAGGGACTAG)	0.27
AGAGAGACTTGGGTTCTAACCTGTTGCCT (site AGAGTGACTAG)	0.185
AGAGCCTCTTGGGTTCTAACCTGTTGCTA (site AGAGCCTCTTA)	2.36
AGAGCCTCTTGGGTTCTAACCTGTTGCTA (site TTCAGGGCTCT)	0.0371
AGATCATCTTGGGTTCTAACCTGTTGCTT (site AGACCATCTAG)	0.0425
AGATCATCTTGGGTTCTAACCTGTTGCTT (site AGATCATCTAA)	0.278

Sequence	recombinant barcode read abundance (log10)
AGATCCGCTTGGGTTCTAACCTGTTGCCT (site AGATCCGCTAG)	1.3
AGATCCGCTTGGGTTCTAACCTGTTGCCT (site CGGTCCGCTAG)	0.346
AGATCTCCTTGGGTTCTAACCTGTTGCCT (site AGAGCTCCTCG)	0.231
AGATCTCCTTGGGTTCTAACCTGTTGCCT (site AGATCTCCTAG)	0.313
AGATGGCCTTGGGTTCTAACCTGTTGCAT (site AGATGGACTCT)	0.152
AGATGGCCTTGGGTTCTAACCTGTTGCAT (site AGATGGCCTAT)	0.991
AGATGTACTTGGGTTCTAACCTGTTGCTG (site ACATGTACTCT)	0.0665
AGATGTACTTGGGTTCTAACCTGTTGCTG (site AGATGTACTCA)	0.958
AGATTAGCTTGGGTTCTAACCTGTTGCCG (site AGATTAGCTCG)	1.13
AGATTAGCTTGGGTTCTAACCTGTTGCCG (site GCGGATCCTTA)	0.0251
AGATTTCCTTGGGTTCTAACCTGTTGCCT (site AAATTTCCTAG)	0.0272
AGATTTCCTTGGGTTCTAACCTGTTGCCT (site ACATTTCCTAG)	0.218
AGATTTCCTTGGGTTCTAACCTGTTGCCT (site AGATTTCCTAG)	0.326
AGATTTCCTTGGGTTCTAACCTGTTGCCT (site ATATTTCCTAG)	0.234
AGCAACCCTTGGGTTCTAACCTGTTGCAA (site AGCAACCCTTT)	0.829
AGCAACCCTTGGGTTCTAACCTGTTGCAA (site CCGGGTACTCG)	0.0862
AGCACAACTTGGGTTCTAACCTGTTGCCT (site AGAACAACTAG)	0.0799
AGCACAACTTGGGTTCTAACCTGTTGCCT (site AGCACAACTAG)	0.734
AGCACAACTTGGGTTCTAACCTGTTGCCT (site AGGACAACTAG)	0.0445
